Data reported in PubChem BioAssay AID1259407 (Chemical Carcinogenesis Research Information System (CCRIS), 2018).
Active and inactive are the calls of the source. How the calls were made is not given here.

Tested on: CCRIS mutagenicity, Ames/micronucleus/aberration tests
Test: CCRIS mutagenicity studies
[1] = Test System: AMES SALMONELLA TYPHIMURIUM, Strain/Indicator: TA98(1,8-DNP6), Metabolic Activation: NONE, Method: STANDARD PLATE
[2] = Test System: AMES SALMONELLA TYPHIMURIUM, Strain/Indicator: TA98(NR), Metabolic Activation: NONE, Method: STANDARD PLATE
[3] = Test System: AMES SALMONELLA TYPHIMURIUM, Strain/Indicator: TA98, Metabolic Activation: NONE, Method: STANDARD PLATE
[4] = Test System: AMES SALMONELLA TYPHIMURIUM, Strain/Indicator: TA100, Metabolic Activation: NONE, Method: STANDARD PLATE
[5] = Test System: AMES SALMONELLA TYPHIMURIUM, Strain/Indicator: TA1535, Metabolic Activation: NONE, Method: STANDARD PLATE
[6] = Test System: AMES SALMONELLA TYPHIMURIUM, Strain/Indicator: TA1537, Metabolic Activation: NONE, Method: STANDARD PLATE
[7] = Test System: AMES SALMONELLA TYPHIMURIUM, Strain/Indicator: TA98, Metabolic Activation: RAT, LIVER, S-9, AROCLOR 1254, Method: STANDARD PLATE
[8] = Test System: AMES SALMONELLA TYPHIMURIUM, Strain/Indicator: TA100, Metabolic Activation: RAT, LIVER, S-9, AROCLOR 1254, Method: STANDARD PLATE

For `Cc1cccc(N)c1C`, the mutagenic call (Test System: AMES SALMONELLA TYPHIMURIUM, Strain/Indicator: TA97, Metabolic Activation: HAMSTER, LIVER, S-9, AROCLOR 1254 (10%), Method: PREINCUBATION) was “inactive; negative”, the mutagenic call (Test System: AMES SALMONELLA TYPHIMURIUM, Strain/Indicator: TA97, Metabolic Activation: NONE, Method: PREINCUBATION) was “inactive; negative” and the mutagenic call (Test System: AMES SALMONELLA TYPHIMURIUM, Strain/Indicator: TA97, Metabolic Activation: RAT, LIVER, S-9, AROCLOR 1254 (10%), Method: PREINCUBATION) was “inactive; negative”. For the same molecule, the mutagenic call (Test System: AMES SALMONELLA TYPHIMURIUM, Strain/Indicator: TA98, Metabolic Activation: HAMSTER, LIVER, S-9, AROCLOR 1254 (10%), Method: PREINCUBATION) was “active; positive”, the mutagenic call (Test System: AMES SALMONELLA TYPHIMURIUM, Strain/Indicator: TA98, Metabolic Activation: NONE, Method: PREINCUBATION) was “inactive; negative” and the mutagenic call (Test System: AMES SALMONELLA TYPHIMURIUM, Strain/Indicator: TA98, Metabolic Activation: RAT, LIVER, S-9, AROCLOR 1254 (10%), Method: PREINCUBATION) was “inactive; negative”. For the same molecule, the mutagenic call (Test System: AMES SALMONELLA TYPHIMURIUM, Strain/Indicator: TA100, Metabolic Activation: HAMSTER, LIVER, S-9, AROCLOR 1254 (10%), Method: PREINCUBATION) was “active; positive”, the mutagenic call (Test System: AMES SALMONELLA TYPHIMURIUM, Strain/Indicator: TA100, Metabolic Activation: NONE, Method: PREINCUBATION) was “inactive; negative” and the mutagenic call (Test System: AMES SALMONELLA TYPHIMURIUM, Strain/Indicator: TA100, Metabolic Activation: RAT, LIVER, S-9, AROCLOR 1254 (10%), Method: PREINCUBATION) was “inactive; negative”. For the same molecule, the mutagenic call (Test System: AMES SALMONELLA TYPHIMURIUM, Strain/Indicator: TA1535, Metabolic Activation: HAMSTER, LIVER, S-9, AROCLOR 1254 (10%), Method: PREINCUBATION) was “inactive; negative”, the mutagenic call (Test System: AMES SALMONELLA TYPHIMURIUM, Strain/Indicator: TA1535, Metabolic Activation: NONE, Method: PREINCUBATION) was “inactive; negative” and the mutagenic call (Test System: AMES SALMONELLA TYPHIMURIUM, Strain/Indicator: TA1535, Metabolic Activation: RAT, LIVER, S-9, AROCLOR 1254 (10%), Method: PREINCUBATION) was “inactive; negative”.
For `CN(C)CCCNc1c2ccccc2nc2c([N+](=O)[O-])cccc12`, the mutagenic call [1] was “active; positive”, the mutagenic call (Test System: AMES SALMONELLA TYPHIMURIUM, Strain/Indicator: TA98(1,8-DNP6), Metabolic Activation: RAT, LIVER, S-9, Method: STANDARD PLATE) was “active; positive” and the mutagenic call [2] was “active; positive”. The mutagenic call (Test System: AMES SALMONELLA TYPHIMURIUM, Strain/Indicator: TA98(NR), Metabolic Activation: RAT, LIVER, S-9, Method: STANDARD PLATE) was “active; positive”, the mutagenic call [3] was “active; positive” and the mutagenic call (Test System: AMES SALMONELLA TYPHIMURIUM, Strain/Indicator: TA98, Metabolic Activation: RAT, LIVER, S-9, Method: STANDARD PLATE) was “active; positive”. The mutagenic call [4] was “active; positive”, the mutagenic call [5] was “inactive; negative” and the mutagenic call [6] was “active; positive”. For the same molecule, the mutagenic call (Test System: AMES SALMONELLA TYPHIMURIUM, Strain/Indicator: TA1537 PKM101, Metabolic Activation: NONE, Method: STANDARD PLATE) was “active; positive”, the mutagenic call (Test System: AMES SALMONELLA TYPHIMURIUM, Strain/Indicator: TA1538, Metabolic Activation: NONE, Method: STANDARD PLATE) was “active; positive” and the mutagenic call (Test System: CHINESE HAMSTER V-79, Strain/Indicator: V-79/6-THIOGUANINE, Metabolic Activation: NONE, Method: STANDARD PLATE) was “active; positive”. The mutagenic call (Test System: CHINESE HAMSTER V-79, Strain/Indicator: V-79/OUABAIN, Metabolic Activation: NONE, Method: STANDARD PLATE) was “inactive; negative”, the mutagenic call (Test System: Escherichia coli, Strain/Indicator: CC107 (G6 to G7 frameshifts), Metabolic Activation: None, Method: Modified preincubation) was “active; positive” and the mutagenic call (Test System: Escherichia coli, Strain/Indicator: CC108 (G6 to G5 frameshifts), Metabolic Activation: None, Method: Modified preincubation) was “active; positive”. The mutagenic call (Test System: Escherichia coli, Strain/Indicator: CC109 (CG5 to CG4 frameshifts), Metabolic Activation: None, Method: Modified preincubation) was “inactive; negative, investigators report as positive based on revertant frequency correcte” and the mutagenic call (Test System: Escherichia coli, Strain/Indicator: CC111 (A7 to A6 frameshifts), Metabolic Activation: None, Method: Modified preincubation) was “inactive; negative”.
With `O=C1C2(Cl)C3(Cl)C4(Cl)C(Cl)(Cl)C5(Cl)C3(Cl)C1(Cl)C5(Cl)C24Cl` (stereo not given) the mutagenic call (End Point: IN VITRO CHROMOSOMAL ABERRATIONS, Test System: CHINESE HAMSTER OVARY CELLS, Metabolic Activation: NONE) was “inactive; negative” and the mutagenic call (End Point: IN VITRO CHROMOSOMAL ABERRATIONS, Test System: CHINESE HAMSTER OVARY CELLS, Metabolic Activation: RAT, LIVER, S-9, AROCLOR 1254) was “inactive; negative”.
For `C[C@]12CC[C@H](OC(=O)COc3ccc(N(CCCl)CCCl)cc3)C[C@@H]1CC[C@@H]1[C@@H]2CC[C@]2(C)NC(=O)CC[C@@H]12`, the mutagenic call [3] was “inactive; negative”, the mutagenic call [7] was “inactive; negative” and the mutagenic call [4] was “active; positive”. For the same molecule, the mutagenic call [8] was “active; positive”, the mutagenic call [5] was “active; positive” and the mutagenic call (Test System: AMES SALMONELLA TYPHIMURIUM, Strain/Indicator: TA1535, Metabolic Activation: RAT, LIVER, S-9, AROCLOR 1254, Method: STANDARD PLATE) was “active; positive”. The mutagenic call (Test System: AMES SALMONELLA TYPHIMURIUM, Strain/Indicator: TA1535, Metabolic Activation: S-9, Method: STANDARD PLATE) was “active; positive”, the mutagenic call [6] was “inactive; negative” and the mutagenic call (Test System: AMES SALMONELLA TYPHIMURIUM, Strain/Indicator: TA1537, Metabolic Activation: RAT, LIVER, S-9, AROCLOR 1254, Method: STANDARD PLATE) was “inactive; negative”. The mutagenic call (Test System: AMES SALMONELLA TYPHIMURIUM, Strain/Indicator: TA1537, Metabolic Activation: S-9, Method: STANDARD PLATE) was “inactive; negative”.
In the case of `COc1ccc(O)c2c(=O)c3c(OC)cc4c(c3oc12)[C@@H]1C=CO[C@@H]1O4`, the mutagenic call (Test System: AMES SALMONELLA TYPHIMURIUM, Strain/Indicator: TA98, Metabolic Activation: RAT, LIVER, S-9, PHENOBARBITAL, Method: STANDARD PLATE) is reported as “inactive; negative” and the mutagenic call (Test System: AMES SALMONELLA TYPHIMURIUM, Strain/Indicator: TA100, Metabolic Activation: RAT, LIVER, S-9, PHENOBARBITAL, Method: STANDARD PLATE) is reported as “active; positive”.
`O=C(O)c1ccc([N+](=O)[O-])o1` was tested, and the mutagenic call [1] was “inactive; negative”, the mutagenic call (Test System: AMES SALMONELLA TYPHIMURIUM, Strain/Indicator: TA98(1,8-DNP6), Metabolic Activation: RAT, LIVER, S-9, 3-METHYLCHOLANTHRENE, Method: STANDARD PLATE) was “inactive; negative” and the mutagenic call [2] was “inactive; negative”. For the same molecule, the mutagenic call (Test System: AMES SALMONELLA TYPHIMURIUM, Strain/Indicator: TA98(NR), Metabolic Activation: RAT, LIVER, S-9, 3-METHYLCHOLANTHRENE, Method: STANDARD PLATE) was “inactive; negative”, the mutagenic call [3] was “inactive; negative” and the mutagenic call (Test System: AMES SALMONELLA TYPHIMURIUM, Strain/Indicator: TA98, Metabolic Activation: RAT, LIVER, S-9, 3-METHYLCHOLANTHRENE, Method: STANDARD PLATE) was “inactive; negative”. The mutagenic call [4] was “active; positive”.
With `C=CCc1[c-]cccc1.C=CCc1[c-]cccc1.[Pt+2].c1ccc(P(c2ccccc2)c2ccccc2)cc1.c1ccc(P(c2ccccc2)c2ccccc2)cc1` the mutagenic call (Test System: AMES SALMONELLA TYPHIMURIUM, Strain/Indicator: TA92, Metabolic Activation: NONE, Method: STANDARD PLATE) was “inactive; negative”, the mutagenic call [3] was “inactive; negative” and the mutagenic call [4] was “inactive; negative”. The mutagenic call (Test System: AMES SALMONELLA TYPHIMURIUM, Strain/Indicator: TA2410, Metabolic Activation: NONE, Method: STANDARD PLATE) was “inactive; negative”.
In the case of `O=C(/C=C/c1ccc(-c2ccccc2)cc1)c1ccccc1`, the mutagenic call [3] is reported as “inactive; negative”, the mutagenic call [7] is reported as “inactive; negative” and the mutagenic call [4] is reported as “inactive; negative”. For the same molecule, the mutagenic call [8] was “inactive; negative”.
In the case of `Fc1ccnc2ccccc12`, the mutagenic call (Test System: AMES SALMONELLA TYPHIMURIUM, Strain/Indicator: TA100, Metabolic Activation: RAT, LIVER, S-9, AROCLOR 1254, Method: PREINCUBATION) is reported as “active; positive” and the mutagenic call (Test System: UDS RODENT HEPATOCYTES, Strain/Indicator: THY INCORP (NON-S-PHASE), Metabolic Activation: NONE, Method: AUTORADIOGRAPHY) is reported as “inactive; negative”.
